Patent US6521659B2, “Compositions containing a substituted indolealkanoic acid and an angiotensin converting enzyme inhibitor” (Institute for Pharmaceutical Discovery, LLC, priority 2000, dated 2003)
Like-named read-outs stand apart in the source and are kept apart here.

Key:
[1] = tested on: rat aortic ring; assay: Rat aortic ring assay (anti-angiogenic activity); format: cell-based
Method: Final concentration of DMSO in all wells is 1%.
Statistical analysis conducted with Kruskal-Wallis Test and Dunns multiple comparisons

[2] = tested on: diabetic (db/db) mice; assay: Blood glucose lowering in diabetic (db/db) mice; format: in vivo, mouse; conditions: for Blood glucose: n = 12
Method: The mice are obese, extremely hyperglycemic and also hyperinsulinemic.
Male db/db mice (8 weeks old) were obtained from Jackson Laboratories and were allowed to acclimate for 1 week before the experiment commenced. A sample of blood was collected from the tail after which plasma glucose was isolated by centrifigation and the glucose concentration was measured in the plasma enzymatically on the COBAS automated clinical analyzer equipped with a glucose kit that utilized hexokinas to quantitate the amount of glucose in a sample (Roche Diagnostic Systems, kit #47382). Mice with the lowest plasma glucose values were removed from the study and the remaining mice were randomized according to their individual plasma glucose values into 3 treatment groups (n=12 per group), control untreated db/db mice, 100 mg/kg/d compound treated db/db mice and 300 mg/kg/d compound treated db/db mice.
Treatment with the compound was carried out for 4 weeks during which time blood glucose levels were measured weekly from the tail using the One Touch II blood glucose meter (Lifescan, Inc). The blood glucose values of mice in the compound treated groups was compared to the blood glucose values of mice from the control untreated group by an analysis of variance followed by Dunett's Comparison Test (one-tailed).

[3] = tested on: streptozotocin-induced diabetic rats; assay: Serum/plasma triglyceride levels in streptozotocin-induced diabetic rats; format: in vivo, rat; conditions: 10 mg/kg/day
Method: Tests are conducted to determine the effect of compounds on serum triglyceride levels in streptozotocin-induced diabetic rats.
Control animals receive citrate buffer.
Two hours after STZ injection, food is returned.
The nondiabetic and diabetic control groups are administered vehicle.

[4] = tested on: STZ treated diabetic minipigs; assay: Wound healing in STZ treated diabetic minipigs; format: in vivo, minipig; conditions: STZ diabetic minipigs with wounds, compared with untreated control STZ diabetic minipigs
Method: STZ treated diabetic minipigs having various wounds are administered the compound of Example 3. These animals are compared with control STZ diabetic minipigs also having wounds but that are not treated with the compound. […] Accordingly, the compounds of the invention are capable of promoting wound healing in diabetic mammals.

`O=C(O)Cn1cc(Cc2nc3c(F)c(F)cc(F)c3s2)c2ccccc21` [Example 3, 3-(4,5,7-Trifluorobenzothiazol-2-yl)methyl-indole-N-acetic Acid] was tested, and the “Linear Microvascular Growth” value [1] was 1.97 ± 0.66, n = 5 mm, the “Linear Microvascular Growth” value ([1]; 50 µM) was 2.31 ± 0.71, n = 5 mm and the “Linear Microvascular Growth” value ([1]; Prevention (Days 1-6), 50 micromolar, mean ± SD, n = 6) was 1.46 ± 0.48, n = 6 mm. It also gave a Blood glucose ([2]; 100 mg/kg/d in diet, Week 0, mean ± SD) of 323 ± 79 mg/dL, a Blood glucose ([2]; 100 mg/kg/d in diet, Week 2, mean ± SD) of 284 ± 75 mg/dL and a Blood glucose ([2]; 100 mg/kg/d in diet, Week 3, mean ± SD) of 258 ± 60 mg/dL. The Blood glucose ([2]; 100 mg/kg/d in diet, Week 4, mean ± SD) was 303 ± 79 mg/dL, the “mean percent change in glucose with drug treatment (lowering)” value ([2]; 100 mg/kg/d, after four weeks) was 12% and the Blood glucose ([2]; 300 mg/kg/d in diet, Week 0, mean ± SD) was 313 ± 52 mg/dL. The Blood glucose ([2]; 300 mg/kg/d in diet, Week 2, mean ± SD) was 240 ± 85 mg/dL, the Blood glucose ([2]; 300 mg/kg/d in diet, Week 3, mean ± SD) was 197 ± 77 mg/dL and the Blood glucose ([2]; 300 mg/kg/d in diet, Week 4, mean ± SD) was 207 ± 77 mg/dL. For the same compound, the “mean percent change in glucose with drug treatment (lowering of blood glucose)” value ([2]; 300 mg/kg/d, after four weeks) was 40%, the “Triglyceride lowering compared to diabetic” value ([3]; STZ diabetic rats, 10 mg/kg/d by gavage) was 68% and the Plasma triglycerides ([3]; po, 4 h) was 149 ± 29 mg/dL. For the same compound, the “degree of wound healing” value [4] was “significant increase in the degree of wound healing”.
